Where “and” joins values, the source holds several entries; their conditions need not be identical. Equal values may be shown once.
Experiments:
[1] = molecular target: T1, HSA (Homo sapiens, UniProt P02768); assay: Competitive probe experiment (warfarin, ibuprofen, lidocaine); assay type: binding
T1 construct: HSA (≥96%) and six PFAS were all purchased from Aladdin Chemicals (Shanghai, China); purchased Aladdin Chemicals (Shanghai, China)
From the text: Competitive probe experiments are commonly used to identify specific binding sites in the structure of proteins. Three probe molecules known to bind to distinct binding sites on HSA were selected: warfarin (subdomain IIA), ibuprofen (subdomain IIIA), and lidocaine (subdomain IIB). These probe molecules would compete with PFAS for the same protein sites when binding with HSA. The potential binding sites can be inferred by monitoring and comparing changes in fluorescence intensity when probe molecules are present.

[2] = molecular target: T2, Human Serum Albumin (HSA) (Homo sapiens, UniProt P02768); assay: Fluorescence quenching of HSA by PFAS (Stern–Volmer, double logarithmic and Van't Hoff analysis); assay type: binding; details: for quenching of HSA fluorescence intensity: PFAS 1.8 × 10^−5 mol·L^−1, HSA 1 × 10^−6 mol·L^−1, 298 K; for ΔH / ΔS: Van't Hoff, 298–310 K; for affinity for HSA: fluorescence quenching experiments; for main interaction force from thermodynamic analysis: signs of ΔH and ΔS
T2 construct: HSA (≥96%) and six PFAS were all purchased from Aladdin Chemicals (Shanghai, China); purchased Aladdin Chemicals (Shanghai, China)
Protocol: Fluorescence quenching experiments greatly benefit studies on the interactions between ligands and proteins. Initially, 3 mL of HSA stock solution was put into a 10 mm square quartz cuvette. Following that, PFAS stock solution was gradually added to achieve various final concentrations, namely 0, 3, 6, 9, 12, 15, 18 × 10^−6 mol·L^−1. By incrementally increasing the molar ratio of PFAS vs. HSA up to 18, their binding characteristics can be better investigated.
A thermostat (TR-01A, Bishui Corp, Beijing, China) was used to precisely control the solution temperature, which was set at 298, 304, and 310 K. This device includes a temperature controller and a metal heating cuvette module in conjunction with a fluorometer. This thermostat has a temperature range of 20–60 °C (293–333 K) and an accuracy of 0.1 °C Celsius. This step is critical for keeping the experimental conditions stable. Following that, the samples were fluorescence-scanned with a fluorometer (Cary Eclipse, Agilent, CA, USA). The excitation wavelength was set at 275 nm to efficiently stimulate tryptophan (Trp) and tyrosine (Tyr) residues. Additional test parameters include an emission of 275–500 nm, scanning rate of 1200 nm/min and PTV voltage of 700 v. Fluorescence quenching experiments were repeated three times, and the average values were taken for further calculation.
Fluorescence internal filtration (IFE) refers to the phenomenon where the fluorescence intensity decreases during fluorescence measurement due to the absorption of excitation or emission light by sample components (small molecules or proteins) in solution [19, 20]. This phenomenon is more obvious in the samples with a high concentration of adsorbent. A fluorescence correction formula was used in this study to correct the IFE effect on the data, as follows: Fcorr=Fobs×10^Aex+Aem/2 where Fcorr and Fobs are corrected and observed fluorescence emission intensities, respectively, Aex and Aem are UV-vis absorbances at the excitation and emission wavelengths.
The quenching constant can be calculated using the Stern–Volmer Equation (3). The results are shown in Table 2 and Figure 1: F0/F=1+Kqτ0=1+KsvQ where F0 and F refer to HSA fluorescence intensities without and with the quencher (PFAS solution); Kq is the biomacromolecule’s quenching rate constant; τ0 is the average fluorescence lifetime of the fluorescent molecule when the quencher PFAS is absent, usually taken as 10^−8 s; [Q] is the PFAS concentration; Ksv is the Stern–Volmer quenching constant; F0/F is the vertical axis; the Stern–Volmer curves of this system are 298, 304, and 310 K.
The double logarithmic formula can be used to calculate the binding constants and binding site numbers of HSA–PFAS complexes: logF0−F/F=logKb+nlogQ where F0 and F are parameters representing the initial fluorescence intensity and the fluorescence intensity after adding PFAS, respectively. The binding characteristics are represented by the binding constant, Kb, and the number of binding sites, n. The slope of the straight line is the number of binding sites, n, and the binding constant Kb is obtained from the exponent of the straight line’s intercept using the double logarithmic graph. Figure A2 and Table 2 show the calculation results.
The enthalpy change (∆H), entropy change (∆S), and free energy change (∆G) calculated from the Van’t Hoff equation [50] can be used to determine the type of interaction. lnKb=−ΔH/RT+ΔS/R ΔG=ΔH−TΔS=−RTlnKb where R represents the ideal gas constant (8.314 J·mol^−1·K^−1).

[3] = molecular target: T1, HSA; assay: 3D-EEM fluorescence spectra of HSA–PFAS; details: HSA 1 × 10^−6, PFAS 1.8 × 10^−5 mol·L^−1; for 3D-EEM Peak A Intensity F: HSA alone 673.66; for 3D-EEM Peak B Intensity F: HSA alone 996.906
Protocol: The 3D-EEM spectra were recorded using specific scanning parameters at the scanning rate of 2400 nm·min^−1, an […] with 5 nm increments, and an emission of 280–550 nm with 2 nm increments. The concentrations of PFAS and HSA were set at 18 × 10^−6 mol·L^−1 and 1 × 10^−6 mol·L^−1, respectively.

[4] = molecular target: T1, HSA; assay: Circular dichroism (CD) spectrum, secondary structure of HSA; details: HSA:PFAS 1:18, 298 K; for HSA secondary structure: β-Sheet: HSA alone 4.9; for HSA secondary structure: β-Turn: HSA alone 16.9; for HSA secondary structure: Random Coil: HSA alone 36.7; for HSA secondary structure: α-Helix: HSA alone 41.6
From the text: CD measurements (190–260 nm) were taken before and after the addition of PFAS to HSA using a J-815 CD spectrometer equipped with a PMT detector (JASCO, Tokyo, Japan). The protein concentration was set at 1 × 10^−6 mol/L, with a fixed HSA-to-PFAS concentration ratio of 1:18. The scanning rate was set to 100 nm/min with 0.5 nm increments, and the photometric mode of HT. Each sample was scanned three times. The blank buffer control was automatically subtracted during the scanning process. All tests were carried out at 298 K. The CONTIN analysis method from the DichroWeb was employed to determine the contents of the protein’s secondary structure.

T2 sequence (P02768 25-609): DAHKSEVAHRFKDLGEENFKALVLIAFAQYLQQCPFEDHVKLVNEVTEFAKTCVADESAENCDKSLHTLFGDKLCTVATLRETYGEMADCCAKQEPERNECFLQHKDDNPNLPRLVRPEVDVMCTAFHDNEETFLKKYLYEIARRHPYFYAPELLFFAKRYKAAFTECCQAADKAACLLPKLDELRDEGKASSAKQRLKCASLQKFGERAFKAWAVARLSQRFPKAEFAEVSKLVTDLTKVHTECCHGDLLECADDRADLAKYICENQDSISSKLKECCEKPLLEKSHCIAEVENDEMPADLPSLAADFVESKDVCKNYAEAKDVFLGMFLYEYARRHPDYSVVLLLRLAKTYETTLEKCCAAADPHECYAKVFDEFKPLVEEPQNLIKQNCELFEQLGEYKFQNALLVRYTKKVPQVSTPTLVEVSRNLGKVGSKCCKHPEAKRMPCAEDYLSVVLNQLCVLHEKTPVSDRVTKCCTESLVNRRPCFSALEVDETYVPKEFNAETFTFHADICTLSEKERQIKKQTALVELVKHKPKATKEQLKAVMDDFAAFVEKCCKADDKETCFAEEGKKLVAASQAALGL
T1 sequence (P02768 25-609): as above

SMILES	φ (rate of decrease in Kb) ([1]; ibuprofen probe) [%]	φ (rate of decrease in Kb) ([1]; lidocaine probe) [%]	φ (rate of decrease in Kb) ([1]; warfarin probe) [%]	fluorescence quenching mechanism [2]	quenching of HSA fluorescence intensity [2] [%]	KSV (Stern–Volmer quenching constant) ([2]; T = 298 K)	n (number of binding sites) ([2]; T = 298 K)	ΔG ([2]; T = 298 K) [kcal/mol]	Kq (quenching rate constant) ([2]; T = 298 K, τ0 taken as 10^−8 s)	KSV (Stern–Volmer quenching constant) ([2]; T = 304 K)	n (number of binding sites) ([2]; T = 304 K)	ΔG ([2]; T = 304 K) [kcal/mol]	Kq (quenching rate constant) ([2]; T = 304 K, τ0 taken as 10^−8 s)	KSV (Stern–Volmer quenching constant) ([2]; T = 310 K)	n (number of binding sites) ([2]; T = 310 K)	ΔG ([2]; T = 310 K) [kcal/mol]	Kq (quenching rate constant) ([2]; T = 310 K, τ0 taken as 10^−8 s)	ΔH [2] [kcal/mol]	ΔS [2] [J·mol^−1·K^−1]	affinity for HSA [2]	also measured
O=C(O)C(F)(F)C(F)(F)C(F)(F)C(F)(F)C(F)(F)C(F)(F)C(=O)O [DFSA, Dodecafluorosuberic Acid]	25.4	31.7	93.3	static quenching	9.7	0.58 ± 0.06 × 10^4 L·mol^−1	0.88 ± 0.02	-4.338	0.58 ± 0.06 × 10^12 L·mol^−1·s^−1	0.51 ± 0.04 × 10^4 L·mol^−1	0.98 ± 0.05	-5.136	0.51 ± 0.04 × 10^12 L·mol^−1·s^−1	0.45 ± 0.05 × 10^4 L·mol^−1	1.13 ± 0.07	-6.123	0.45 ± 0.05 × 10^12 L·mol^−1·s^−1	40.031 ± 1.02	622.5 ± 15.3	low affinity	main interaction force from thermodynamic analysis [2]: hydrophobic interactions; 3D-EEM Peak A Position λex/λem [3]: 280/336; 3D-EEM Peak B Position λex/λem [3]: 230/330; 3D-EEM Peak A Intensity F [3]: 629.75 a.u.; 3D-EEM Peak B Intensity F [3]: 839.38 a.u.; HSA secondary structure: β-Sheet [4]: 4.0%; HSA secondary structure: β-Turn [4]: 15.8%; HSA secondary structure: Random Coil [4]: 37.0%; HSA secondary structure: α-Helix [4]: 43.2%
O=C(O)C(F)(OC(F)(F)C(F)(OC(F)(F)C(F)(F)C(F)(F)F)C(F)(F)F)C(F)(F)F (centres unmarked) [HFPO-TA, Perfluoro-2,5-dimethyl-3,6-dioxanonanoic Acid]	23.8	35.3	99.6	mixed quenching	25.1	1.78 ± 0.09 × 10^4 L·mol^−1	1.49 ± 0.03	-8.956	1.78 ± 0.09 × 10^12 L·mol^−1·s^−1	1.95 ± 0.13 × 10^4 L·mol^−1	1.78 ± 0.07	-11.03	1.95 ± 0.13 × 10^12 L·mol^−1·s^−1	1.98 ± 0.08 × 10^4 L·mol^−1	2.09 and 2.09 ± 0.08	-13.28	1.98 ± 0.08 × 10^12 L·mol^−1·s^−1	98.506 ± 2.02	1508.3 ± 30.8	high affinity	Kq (quenching rate constant) ([2]; 298 K): 1.78e+12 L/mol/s; HSA fluorescence peak position after PFAS addition (blue shift from 337 nm) ([2]; as the concentration of PFAS increases): 315 nm; main interaction force from thermodynamic analysis [2]: hydrophobic interactions; 3D-EEM Peak A Position λex/λem [3]: 280/321; 3D-EEM Peak B Position λex/λem [3]: 230/314; 3D-EEM Peak A Intensity F [3]: 499.16 a.u.; 3D-EEM Peak B Intensity F [3]: 861.38 a.u.; HSA secondary structure: β-Sheet [4]: 5.1%; HSA secondary structure: β-Turn [4]: 15.8%; HSA secondary structure: Random Coil [4]: 38.5%; HSA secondary structure: α-Helix [4]: 40.6%
O=C(O)C(F)(F)C(F)(F)C(F)(F)C(F)(F)C(F)(F)C(F)(F)F [PFHpA, Perfluoroheptanoic Acid]	42.7	48.8	98.9	static quenching	12.1	0.69 ± 0.05 × 10^4 L·mol^−1	0.96 ± 0.04	-4.986	0.69 ± 0.05 × 10^12 L·mol^−1·s^−1	0.53 ± 0.07 × 10^4 L·mol^−1	1.42 ± 0.06	-7.968	0.53 ± 0.07 × 10^12 L·mol^−1·s^−1	0.32 ± 0.04 × 10^4 L·mol^−1	1.50 ± 0.05	-8.332	0.32 ± 0.04 × 10^12 L·mol^−1·s^−1	77.672 ± 3.399	1166.7 ± 42.7	low affinity	main interaction force from thermodynamic analysis [2]: hydrophobic interactions; 3D-EEM Peak A Position λex/λem [3]: 280/336; 3D-EEM Peak B Position λex/λem [3]: 230/335; 3D-EEM Peak A Intensity F [3]: 656.89 a.u.; 3D-EEM Peak B Intensity F [3]: 997.01 a.u.; HSA secondary structure: β-Sheet [4]: 5.5%; HSA secondary structure: β-Turn [4]: 15.5%; HSA secondary structure: Random Coil [4]: 39.4%; HSA secondary structure: α-Helix [4]: 39.6%

Reference: paper PMC10819430, “Binding Affinity and Mechanism of Six PFAS with Human Serum Albumin: Insights from Multi-Spectroscopy, DFT and Molecular Dynamics Approaches” (Toxics, 2024)
